Test results: patent publication US12667570B2, “Small molecule modulators of KSR-bound MEK” (Icahn School of Medicine at Mount Sinai, priority 2020, dated 2026)

Assays:
MEK1-luc [1] = target: T1, MEK1-luc (Homo sapiens, UniProt Q02750); assay: NanoBRET in-cell steady-state IC50 (competition with tram-bo tracer), MEK1-luc; details: IC50 MEK1-luc versus KSR1-luc
MEK1-luc [2] = target: T1, MEK1-luc; assay: NanoBRET washout experiment, intracellular residence time, MEK1-luc; format: binding; details: BRET build-up with 1 μM tram-bo, […] time course
Method: (§1) Specifically, transfections of MEK1-luc and KSR1-luc, and construction of the drug transfer plates were carried out as mentioned above. For washout experiments, cells were first removed from adherent plates by trypsin treatment. Following, cells were harvested, spun, and resuspended in Opti-MEM (270 μL total) in centrifuge tubes at 450,000 cells/tube.

[3] = target: T2, mouse KSR1-luc (KSR-bound MEK) (UniProt Q02750+Q61097); assay: NanoBRET in-cell steady-state IC50 (competition with tram-bo tracer), KSR1-luc; format: binding
T2 construct: expressed in transfected cells; host or cells: HEK293T

BRAF-MEK1 complex [4] = target: BRAF-MEK1 complex (Homo sapiens, UniProt P15056+Q02750, R662A); assay: Co-immunoprecipitation via endogenous MEK1 from HCT116 cells, BRAF; format: cell-based; details: 200 nM, 1 hour
KSR1-luc (KSR-bound MEK) = KSR1-luc (KSR-bound MEK) (UniProt Q02750+Q61097); assay: NanoBRET washout experiment, intracellular residence time, KSR1-luc; format: binding, mouse; details: BRET build-up with 1 μM tram-bo, […] time course
Method: as §1

KSR1-MEK1 complex = KSR1-MEK1 complex (UniProt Q02750+Q61097, P775N); assay: Co-immunoprecipitation via endogenous MEK1 from HCT116 cells, FLAG-KSR1; format: cell-based, mouse KSR1; details: 200 nM, 1 hour
KRAS-G12S A549 cells = assay: Long-term clonogenic assay; format: cell-based, human; details: 10 nM final concentration, in comparison to amide-linker compounds (1, 3)
Method: Cells were plated at a density of 6,000 cells per well in 6-well plates in 3 mL of culture medium. Twenty-four hours after seeding, compounds dissolved in DMSO or DMSO-only vehicles were added directly to the culture media at a 1:1000 dilution. Following 10 days of culture, cells were washed 2× in PBS, fixed in ice-cold methanol for 10 minutes, stained with crystal-violet at room temperature for 10 minutes, and subsequently washed three times in water. Plates were allowed to dry overnight before imagining with an Epson V600 scanner.

BRAF-MEK1 complex [5] = target: T3, BRAF-MEK1 complex (Homo sapiens, UniProt P15056+Q02750); assay: Co-immunoprecipitation via endogenous MEK1 from HCT116 cells, BRAF; format: cell-based; details: 200 nM, 1 hour, relative to DMSO
T3 construct: IP/WB of endogenous MEK1 from HCT116 cells; endogenous in cells; host or cells: HCT116

[6] = system: BRAF and CRAF phosphorylation of MEK1; assay: In vitro phosphorylation of MEK1 by upstream kinases; format: biochemical; details: MEK1 as substrate
Excerpt: (§2) FIG. 65 Trametiglue targets both KSR-MEK and RAF-MEK with unprecedented potency and selectivity via unique interfacial binding interactions.

isolated BRAF or CRAF = assay: In vitro kinase profiling, direct binding assays, BRAF/CRAF; details: 1 μM
Excerpt: as §2

HCT 116 = assay: Cell proliferation / viability assay under low-adherence conditions; format: cell-based, human
Method: A375, A549, HCT116, and SKMEL-239 cells were plated in Corning Costar Ultra-Low Attachment 96-well plates (Reference number 3434). After 24 hours of incubation at 37° C., cells were treated with inhibitors (0.1% DMSO in final volume). Cells were grown for five days, and resazurin sodium salt was added at a final concentration of 0.01 μg/μL. Fluorescence was measured using a Molecular Devices SpectraMax M5 spectrophotometer after a 4-24-hour incubation with resazurin solution. Technical triplicate values were averaged for each experiment, and biological replicate values are represented as average+/−standard deviation. For each cell line, log EC50 values of inhibitors were statistically compared using the extra sum-of-squares F test in GraphPad Prism 8 (FIG. 57, 58, 67, 68, 69).

MEK1 and MEK2 [7] = assay: In vitro substrate phosphorylation assays, MEK1/MEK2; format: biochemical; details: panel of active kinases
Excerpt: as §2

[8] = system: phosphorylated ERK1/2 at residues T202 and Y204 (pERK); assay: Immunoblot of RAS/ERK pathway inhibition; format: cell-based, human; details: 1 hour, increasing concentrations
Method: Cells were plated at a density of 300,000 cells per well in 6-well plates in 2 mL of culture medium. 24 hours after seeding, cells were treated with compounds or DMSO at a 1:1000 dilution (0.1% DMSO in final volume). […] Samples were normalized to a protein content of 5 μg/μL in 100 μL total volume, and 20 μL of 6×SDS was added. […] Transfers were confirmed using ponceau red, washed, and then blocked for 1 hour with 5% BSA TBS-T, prior to overnight incubation with primary antibodies including phospho-ERK1/2 T202/Y204 and total ERK1/2 (Cell Signaling Technologies (CST) 9101S and 4695S, respectively) in 5% BSA TBS-T. The next day, blots were washed extensively, and incubated in secondary antibody (Anti-Rabbit IgG HRP-Linked CST 7074S).

MEK1 and MEK2 [9] = assay: In vitro kinase profiling, direct binding assays, MEK1/MEK2; details: 1 μM
Excerpt: as §2

isolated MEK1 = target: T4, isolated MEK1 (Oryctolagus cuniculus, UniProt P29678, S298N/S299K/Y300F); assay: Bio-layer interferometry (BLI), isolated MEK1; format: binding, rabbit; details: read-out: dissociation constant (KD), isolated MEK1
T4 construct: rabbit MEK1 (residues 35-393; Uniprot ID: P29678); hexahistidine tag with TEV-cleavage site (N); made in house; host or cells: SF21 insect cells (baculovirus)
T4 sequence (P29678 35-393 S298N/S299K/Y300F): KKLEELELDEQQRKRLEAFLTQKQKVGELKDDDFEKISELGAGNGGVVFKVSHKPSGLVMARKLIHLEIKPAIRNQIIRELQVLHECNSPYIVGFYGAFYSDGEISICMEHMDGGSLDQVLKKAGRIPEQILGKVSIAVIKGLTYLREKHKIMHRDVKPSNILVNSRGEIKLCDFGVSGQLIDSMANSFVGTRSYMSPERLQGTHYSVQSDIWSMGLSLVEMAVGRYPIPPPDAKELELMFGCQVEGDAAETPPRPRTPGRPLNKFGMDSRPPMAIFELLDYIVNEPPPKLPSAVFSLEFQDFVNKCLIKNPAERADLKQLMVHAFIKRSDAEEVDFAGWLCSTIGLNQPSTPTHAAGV
Method: (§3) BLI measurements were performed using an Octet Red96 (Forte Bio, Inc.) system. All experiments were conducted at 25° C. with shaking at 1000 rpm, and in a buffer containing 20 mM Hepes pH 7.5, 200 mM NaCl, 1 mM ATP, 5 mM MgCl2, 0.02% Tween-20, 1% DMSO. […] This amount of immobilization typically achieved 1.5-2.0 nm binding signal. Biosensors were then washed in buffer, treated in a solution of biocytin for 3 min, and then again washed extensively to achieve a normalized baseline signal of ˜0 nm. Following, for kinetic analysis, biosensors were dipped in solutions of free MEK1, BRAF:MEK1, KSR1:MEK1, or KSR2:MEK1. Association was measured for 10 or 15 minutes, following a dissociation phase in buffer of 15 minutes. […] All experiments were performed at least three independent times, with raw data processed and analyzed using global fit binding models in Fortebio software to derive KD (M), Kon(1/M·s), and Kdis (1/s) values. […] One-to-one binding models provided a high agreement with the measured binding signals based on chi-squared and R-squared values. Raw data and fitting, mean and standard deviation determinations, as well as statistical analysis, for KD, kon(1/M·s), kdis(1/s), and τ(min) are included in FIG. 71.

BRAF-MEK1 = target: T5, BRAF-MEK1 (Oryctolagus cuniculus, UniProt P29678, S298N/S299K/Y300F); assay: Bio-layer interferometry (BLI), BRAF-MEK1; format: binding, human BRAF; rabbit MEK1; details: read-out: dissociation constant (KD), MEK1-BRAF
T5 construct: human BRAF (residues 432-726; Uniprot ID: P15056); rabbit MEK1 (residues 35-393; Uniprot ID: P29678); hexahistidine tag with TEV-cleavage site (N); made in house; host or cells: SF21 insect cells (baculovirus)
T5 sequence (P29678 35-393 S298N/S299K/Y300F): as above
Method: as §3

KSR1-MEK1 = target: T6, KSR1-MEK1 (UniProt P29678+Q8IVT5, S298N/S299K/Y300F); assay: Bio-layer interferometry (BLI), KSR1-MEK1; format: binding, human KSR1; rabbit MEK1; details: read-out: dissociation constant (KD), KSR1-MEK1
T6 construct: human KSR1 (residues 591-899; Uniprot ID:Q8IVT5); rabbit MEK1 (residues 35-393; Uniprot ID: P29678); hexahistidine tag with TEV-cleavage site (N); made in house; host or cells: SF21 insect cells (baculovirus)
T6 sequence (Q8IVT5 591-899): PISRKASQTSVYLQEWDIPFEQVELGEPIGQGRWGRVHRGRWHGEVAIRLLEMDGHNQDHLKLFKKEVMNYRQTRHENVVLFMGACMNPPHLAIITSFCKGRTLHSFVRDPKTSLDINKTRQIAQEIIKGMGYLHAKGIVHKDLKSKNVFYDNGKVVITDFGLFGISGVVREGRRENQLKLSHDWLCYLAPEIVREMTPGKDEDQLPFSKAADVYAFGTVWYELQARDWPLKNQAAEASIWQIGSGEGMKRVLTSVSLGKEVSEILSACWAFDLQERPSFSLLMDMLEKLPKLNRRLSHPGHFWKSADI
T6 sequence (P29678 35-393 S298N/S299K/Y300F): as the sequence (P29678 35-393 S298N/S299K/Y300F) above
Method: as §3

KSR2-MEK1 = target: T7, KSR2-MEK1 (UniProt P29678+Q6VAB6, S298N/S299K/Y300F); assay: Bio-layer interferometry (BLI), KSR2-MEK1; format: binding, human KSR2; rabbit MEK1; details: read-out: dissociation constant (KD), KSR2-MEK1
T7 construct: human KSR2 (residues 634-950; Uniprot ID: Q6VAB6); rabbit MEK1 (residues 35-393; Uniprot ID: P29678); hexahistidine tag with TEV-cleavage site (N); made in house; host or cells: SF21 insect cells (baculovirus)
T7 sequence (Q6VAB6 634-950): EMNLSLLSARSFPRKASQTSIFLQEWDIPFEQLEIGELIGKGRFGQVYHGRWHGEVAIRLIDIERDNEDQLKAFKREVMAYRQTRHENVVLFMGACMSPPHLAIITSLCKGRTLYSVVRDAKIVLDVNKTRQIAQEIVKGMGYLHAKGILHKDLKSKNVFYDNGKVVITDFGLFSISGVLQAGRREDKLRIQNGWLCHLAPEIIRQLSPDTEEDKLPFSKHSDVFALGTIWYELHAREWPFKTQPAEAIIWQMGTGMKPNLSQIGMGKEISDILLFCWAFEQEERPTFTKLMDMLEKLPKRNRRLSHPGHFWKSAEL
T7 sequence (P29678 35-393 S298N/S299K/Y300F): as the sequence (P29678 35-393 S298N/S299K/Y300F) above
Method: as §3

human KSR2-luc = target: T8, human KSR2-luc (Homo sapiens, UniProt Q02750+Q6VAB6); assay: Tram-bo BRET buildup curves, KSR2-luc; format: binding
T8 construct: expressed in transfected cells; host or cells: HEK293T
Method: (§4) Human c-terminal NanoLuc fusions versions of ARAF (Uniprot P10398), BRAF (UniProt P15056), CRAF (Uniprot P04049), KSR1 (Uniprot Q8IVT5), and KSR2 (Uniprot Q6VAB6) were transfected as mentioned above at a concentration of 0.1 μg/mL in combination with 9.9 μg/mL of carrier DNA. All RAF constructs from Promega. […] A 20× tram-bo solution was added to each well to give final concentrations of 4, 1, 0.5, 0.1, 0.05, 0.01, 0.001, 0.0001 μM. […] All data were analyzed using Prism 8 (GraphPad).

[10] = system: ARAF-luc, BRAF-luc, and CRAF-luc; assay: Tram-bo BRET buildup curves, RAF family; format: binding, human; details: in cells
Method: as §4

human KSR1-luc = target: T9, human KSR1-luc (Homo sapiens, UniProt Q02750+Q8IVT5); assay: Tram-bo BRET buildup curves, KSR1-luc; format: binding
T9 construct: expressed in transfected cells; host or cells: HEK293T
Method: as §4

[11] = HCT 116, low-adherence conditions
[12] = BRET buildup, increasing tram-bo

O=C(c1ccc(F)c(F)c1Nc1ccc(I)cc1F)N1CC(O)([C@@H]2CCCCN2)C1 [cobimetinib]
difference in potency between KSR1-luc and MEK1-luc (MEK1-luc [1]): ~20 fold | dissociation kinetics after washout on MEK1-luc (MEK1-luc [2]): dissociated more readily | IC50 on KSR1-luc compared with MEK1-luc ([3]; competition of tram-bo): more potent IC50 values on KSR1-luc over MEK1-luc | pulldown of BRAF mutant B2 (R662A) via endogenous MEK1 (BRAF-MEK1 complex [4]): did not alter complex stability | dissociation kinetics after washout on KSR1-luc (KSR1-luc (KSR-bound MEK)): dissociated more readily | pulldown of KSR1 mutant K1 (P775N) via endogenous MEK1 (KSR1-MEK1 complex): did not alter complex stability

CCN(C)S(=O)(=O)Nc1cccc(-n2c(=O)n(C3CC3)c(=O)c3c(Nc4ccc(I)cc4F)n(C)c(=O)c(C)c32)c1 [compound 6, N-(3-(3-cyclopropyl-5-((2-fluoro-4-iodophenyl)amino)-6,8-dimethyl-2,4,7-trioxo-3,4,6,7-tetrahydropyrido[4,3-d]pyrimidin-1(2H)-yl)phenyl)-N′-ethyl(methyl)sulfonamide 2,2,2-trifluoroacetate]
growth inhibition in clonogenic assay (KRAS-G12S A549 cells): enhanced and durable growth inhibition

CNS(=O)(=O)Nc1nccc(Cc2c(C)c3ccc(Oc4ncccn4)cc3oc2=O)c1F [CH5126766]
pulldown of wild-type BRAF via endogenous MEK1 (BRAF-MEK1 complex [5]): enhances interactions between endogenous BRAF and MEK1

CNS(=O)(=O)Nc1cccc(-n2c(=O)n(C3CC3)c(=O)c3c(Nc4ccc(I)cc4F)n(C)c(=O)c(C)c32)c1 [trametiglue, N-(3-(3-Cyclopropyl-5-((2-fluoro-4-iodophenyl)amino)-6,8-dimethyl-2,4,7-trioxo-3,4,6,7-tetrahydropyrido[4,3-d]pyrimidin-1(2H)-yl)phenyl)methylaminosulfonamide]
inhibition of MEK1 phosphorylation by upstream kinases [6]: inhibition of both BRAF and CRAF phosphorylation of MEK1 | potency and off-rate kinetics compared with trametinib ([3]; KSR-luc or MEK-luc reporters, steady-state and washout): retained similar potency and off-rate kinetics as trametinib | direct interaction with isolated BRAF or CRAF (isolated BRAF or CRAF): no direct interactions | pulldown of wild-type BRAF via endogenous MEK1 (BRAF-MEK1 complex [5]): markedly enhanced capture of BRAF | growth inhibition in clonogenic assay (KRAS-G12S A549 cells): enhanced and durable growth inhibition | improvement in potency relative to CH5126766 (HCT 116; [11]): ~200 fold | improvement in potency relative to trametinib (HCT 116; [11]): approximately 7 fold | IC50 (HCT 116; Homo sapiens, HCT-116, 120 h, low-adherence conditions, five days): 0.07 ± 0.04 nM | inhibition of MEK1 and MEK2 substrate phosphorylation (MEK1 and MEK2 [7]): inhibited MEK1 and MEK2 | inhibition of RAS-MAPK signaling measured by pERK, relative to trametinib [8]: higher potency inhibitor of RAS-MAPK signaling | selectivity in kinase binding experiments (MEK1 and MEK2 [9]): strong selectivity towards MEK1 and MEK2

CC(=O)Nc1cccc(-n2c(=O)n(C3CC3)c(=O)c3c(Nc4ccc(I)cc4F)n(C)c(=O)c(C)c32)c1 [trametinib]
Kd (isolated MEK1): 131 ± 9.4 nM | Kd (BRAF-MEK1): 217 ± 3.2 nM | Kd (KSR1-MEK1): 63.9 ± 4.7 nM | Kd (KSR2-MEK1): 70.4 ± 4.4 nM

Cc1c(=O)n(C)c(Nc2ccc(I)cc2F)c2c(=O)n(C3CC3)c(=O)n(-c3cccc(NS(=O)(=O)NC4CC4)c3)c12 [compound 5, N-(3-(3-cyclopropyl-5-((2-fluoro-4-iodophenyl)amino)-6,8-dimethyl-2,4,7-trioxo-3,4,6,7-tetrahydropyrido[4,3-d]pyrimidin-1(2H)-yl)phenyl)cyclopropylaminosulfonamide]
growth inhibition in clonogenic assay (KRAS-G12S A549 cells): enhanced and durable growth inhibition

Cc1c(=O)n(C)c(Nc2ccc(I)cc2F)c2c(=O)n(C3CC3)c(=O)n(-c3cccc(NC(=O)CCOCCOCCNC(=O)CCC4=[N+]5C(=Cc6ccc(-c7ccc[nH]7)n6[B-]5(F)F)C=C4)c3)c12 [tram-bo]
binding to KSR2-luc relative to ARAF-luc, BRAF-luc and CRAF-luc (human KSR2-luc; [12]): ~10 fold | BRET binding signal, KSR2-luc (human KSR2-luc; in cells): strong BRET binding signals | BRET signal, ARAF-luc, BRAF-luc, CRAF-luc [10]: much weaker BRET signals | binding to KSR1-luc relative to ARAF-luc, BRAF-luc and CRAF-luc (human KSR1-luc; [12]): ~10 fold | BRET binding signal, KSR1-luc (human KSR1-luc; in cells): strong BRET binding signals
